Test results reported in ChEMBL document CHEMBL5321270, “Discovery of Pyrazolone Carbothioamide Derivatives as Inhibitors of the Pdr1-KIX Interaction for Combinational Treatment of Azole-Resistant Candidiasis” (J Med Chem, 2023).
Converted amounts (≈) assume the structure as drawn. The source made the active and inactive calls. No cut-off for these calls is given here.

What was measured:
[1] = Inhibition of fluorescent probe FITC tagged PDR1-KIX domain (unknown origin) protein-protein interaction assessed as inhibition constant incubated for 2 hrs by fluorescence polarization binding assay
Candida albicans [2] = assay: Antifungal activity against Candida albicans 5314 assessed as fungal growth inhibition incubated for 48 hrs by microplate reader assay; assay type: functional, organism-based
Nakaseomyces glabratus [3] = assay: Antifungal activity against fluconazole-resistant Candida glabrata 0161 assessed as fungal growth inhibition incubated for 48 hrs by microplate reader assay; assay type: functional
Nakaseomyces glabratus [4] = assay: Antifungal activity against fluconazole-sensitive Candida glabrata 7669 assessed as fungal growth inhibition incubated for 48 hrs by microplate reader assay; assay type: functional, organism-based
Nakaseomyces glabratus [5] = assay: Antifungal activity against fluconazole-resistant Candida glabrata 0161 assessed as fractional inhibitory concentration incubated for 48 hrs in presence of fluconazole by microplate reader assay; assay type: functional
Nakaseomyces glabratus [6] = assay: Antifungal activity against fluconazole-resistant Candida glabrata 0161 assessed as fluconazole fractional inhibitory concentration incubated for 48 hrs in presence of fluconazole by microplate reader assay; assay type: functional
Candida albicans [7] = assay: Antifungal activity against Candida albicans 0029 assessed as fungal growth inhibition incubated for 48 hrs by microplate reader assay; assay type: functional, organism-based
Nakaseomyces glabratus [8] = assay: Synergistic antifungal activity against fluconazole-resistant Candida glabrata 0161 assessed as fractional inhibitory concentration index incubated for 48 hrs in presence of fluconazole by checkerboard microdilution method; assay type: functional
Candida albicans [9] = assay: Antifungal activity against Candida albicans 103 assessed as fungal growth inhibition incubated for 48 hrs by microplate reader assay; assay type: functional, organism-based
Nakaseomyces glabratus [10] = assay: Antifungal activity against fluconazole-resistant Candida glabrata 8535 assessed as fungal growth inhibition incubated for 48 hrs by microplate reader assay; assay type: functional
Nakaseomyces glabratus [11] = assay: Antifungal activity against fluconazole-resistant Candida glabrata 9256 assessed as fungal growth inhibition incubated for 48 hrs by microplate reader assay; assay type: functional
[Candida] auris [12] = Antifungal activity against Candida auris 15448 assessed as fungal growth inhibition incubated for 48 hrs by microplate reader assay; assay type: functional; details: Candidozyma auris
Candida parapsilosis = assay: Antifungal activity against Candida parapsilosis 20090 assessed as fungal growth inhibition incubated for 48 hrs by microplate reader assay; assay type: functional; details: Lodderomyces parapsilosis
Nannizzia gypsea = assay: Antifungal activity against Microsporum gypseum assessed as fungal growth inhibition incubated for 48 hrs by microplate reader assay; assay type: functional
Candida tropicalis = assay: Antifungal activity against Candida tropicalis 10186 assessed as fungal growth inhibition incubated for 48 hrs by microplate reader assay; assay type: functional
Cryptococcus neoformans = assay: Antifungal activity against Cryptococcus neoformans H99 assessed as fungal growth inhibition incubated for 48 hrs by microplate reader assay; assay type: functional
[Candida] auris [13] = Antifungal activity against Candida auris 0030 assessed as fungal growth inhibition incubated for 48 hrs by microplate reader assay; assay type: functional; details: Candidozyma auris
Candida albicans [14] = assay: Antifungal activity against Candida albicans assessed as fungal growth inhibition incubated for 48 hrs by microplate reader assay; assay type: functional
Aspergillus fumigatus = assay: Antifungal activity against Aspergillus fumigatus 7544 assessed as fungal growth inhibition incubated for 48 hrs by microplate reader assay; assay type: functional
Trichophyton rubrum = assay: Antifungal activity against Trichophyton rubrum assessed as fungal growth inhibition incubated for 48 hrs by microplate reader assay; assay type: functional

Compound | Ki [1] | Activity (Candida albicans [2]) | MIC (Nakaseomyces glabratus [3]) | Activity (Nakaseomyces glabratus [4]) | FIC (Nakaseomyces glabratus [5]) | fluconazole MIC in combination (Nakaseomyces glabratus [6]) | Activity (Candida albicans [7]) | fractional inhibitory concentration index (FICI) (Nakaseomyces glabratus [8]) | Activity (Candida albicans [9]) | Activity (Nakaseomyces glabratus [10]) | Activity (Nakaseomyces glabratus [11]) | further results
N#CCC(=O)NNC(=O)Nc1cccc(Cl)c1 | 119 µM | inactive | > 64 µg/mL | inactive | 2 µg/mL | 16 µg/mL | inactive | 0.53 | inactive | inactive | inactive | –
Nc1cc(=O)n(C(=S)Nc2ccc(Cl)nc2)[nH]1 | 144 µM | – | 0.5 µg/mL (≈ 1.85 µM) | – | 0.25 µg/mL | 0.5 µg/mL | – | 0.52 | – | – | – | MIC ([Candida] auris [12]): 2 µg/mL (≈ 7.42 µM); MIC (Candida parapsilosis): 4 µg/mL (≈ 14.8 µM); MIC (Nannizzia gypsea): 1 µg/mL (≈ 3.71 µM); MIC (Candida tropicalis): 4 µg/mL (≈ 14.8 µM); MIC (Cryptococcus neoformans): 0.063 µg/mL (≈ 0.234 µM); MIC ([Candida] auris [13]): 2 µg/mL (≈ 7.42 µM); MIC (Candida albicans [14]): 4 µg/mL (≈ 14.8 µM); MIC (Aspergillus fumigatus): 16 µg/mL (≈ 59.3 µM); MIC (Trichophyton rubrum): 1 µg/mL (≈ 3.71 µM); MIC (Nakaseomyces glabratus [10]): 0.25 µg/mL (≈ 0.927 µM); MIC (Nakaseomyces glabratus [11]): 0.25 µg/mL (≈ 0.927 µM)
Nc1cc(=O)n(C(=S)Nc2ccc(I)cc2)[nH]1 | 137 µM | – | 0.25 µg/mL (≈ 0.694 µM) | – | 0.13 µg/mL | 0.25 µg/mL | – | 0.53 | – | – | – | MIC ([Candida] auris [12]): 2 µg/mL (≈ 5.55 µM); MIC (Candida parapsilosis): 4 µg/mL (≈ 11.1 µM); MIC (Nannizzia gypsea): 1 µg/mL (≈ 2.78 µM); MIC (Candida tropicalis): 4 µg/mL (≈ 11.1 µM); MIC (Cryptococcus neoformans): 0.063 µg/mL (≈ 0.175 µM); MIC ([Candida] auris [13]): 2 µg/mL (≈ 5.55 µM); MIC (Candida albicans [14]): 4 µg/mL (≈ 11.1 µM); MIC (Aspergillus fumigatus): 16 µg/mL (≈ 44.4 µM); MIC (Trichophyton rubrum): 1 µg/mL (≈ 2.78 µM); MIC (Nakaseomyces glabratus [10]): 0.25 µg/mL (≈ 0.694 µM); MIC (Nakaseomyces glabratus [11]): 0.25 µg/mL (≈ 0.694 µM)
N#CCC(=O)NNC(=S)Nc1ccc2c(c1)CCC2 | 256 µM | inactive | 16 µg/mL (≈ 58.3 µM) | inactive | 8 µg/mL | 1 µg/mL | inactive | 0.53 | inactive | inactive | inactive | –
N#CCC(=O)NNC(=S)Nc1ccccc1Cl | 175 µM | inactive | 32 µg/mL (≈ 119 µM) | inactive | 16 µg/mL | 2 µg/mL | inactive | 0.56 | inactive | inactive | inactive | –
N#CCC(=O)NNC(=S)Nc1ccc2[nH]ccc2c1 | 470 µM | inactive | > 64 µg/mL | inactive | 2 µg/mL | 16 µg/mL | inactive | 0.53 | inactive | inactive | inactive | –
N#CCC(=O)NNC(=S)Nc1ccc(Cl)nc1 | 54.9 µM | inactive | 32 µg/mL (≈ 119 µM) | inactive | 4 µg/mL | 8 µg/mL | inactive | 0.38 | inactive | inactive | inactive | –
Nc1cc(=O)n(C(=S)Nc2cccc(Cl)c2Cl)[nH]1 | 27.2 µM | – | 0.25 µg/mL (≈ 0.825 µM) | – | 0.063 µg/mL | 2 µg/mL | – | 0.31 | – | – | – | MIC ([Candida] auris [12]): 2 µg/mL (≈ 6.6 µM); MIC (Candida parapsilosis): 4 µg/mL (≈ 13.2 µM); MIC (Nannizzia gypsea): 1 µg/mL (≈ 3.3 µM); MIC (Candida tropicalis): 4 µg/mL (≈ 13.2 µM); MIC (Cryptococcus neoformans): 0.063 µg/mL (≈ 0.208 µM); MIC ([Candida] auris [13]): 2 µg/mL (≈ 6.6 µM); MIC (Candida albicans [14]): 4 µg/mL (≈ 13.2 µM); MIC (Aspergillus fumigatus): 16 µg/mL (≈ 52.8 µM); MIC (Trichophyton rubrum): 1 µg/mL (≈ 3.3 µM); MIC (Nakaseomyces glabratus [10]): 0.25 µg/mL (≈ 0.825 µM); MIC (Nakaseomyces glabratus [11]): 0.25 µg/mL (≈ 0.825 µM)
Cc1ccc(NC(=S)NNC(=O)CC#N)cc1 | 476 µM | inactive | 64 µg/mL (≈ 258 µM) | inactive | 2 µg/mL | 16 µg/mL | inactive | 0.53 | inactive | inactive | inactive | –
N#CCC(=O)NNC(=S)Nc1ccc(Cl)cc1Cl | 37.3 µM | inactive | 16 µg/mL (≈ 52.8 µM) | inactive | 8 µg/mL | 2 µg/mL | inactive | 0.56 | inactive | inactive | inactive | –
N#CCC(=O)NNC(=S)Nc1cccc(Cl)c1Cl | 37.1 µM | inactive | 16 µg/mL (≈ 52.8 µM) | inactive | 8 µg/mL | 2 µg/mL | inactive | 0.56 | inactive | inactive | inactive | –
Nc1cc(=O)n(C(=S)Nc2ccc(Cl)cc2Cl)[nH]1 | 84.7 µM | – | 0.5 µg/mL (≈ 1.65 µM) | – | 0.13 µg/mL | 1 µg/mL | – | 0.29 | – | – | – | MIC ([Candida] auris [12]): 2 µg/mL (≈ 6.6 µM); MIC (Candida parapsilosis): 4 µg/mL (≈ 13.2 µM); MIC (Nannizzia gypsea): 1 µg/mL (≈ 3.3 µM); MIC (Candida tropicalis): 4 µg/mL (≈ 13.2 µM); MIC (Cryptococcus neoformans): 0.063 µg/mL (≈ 0.208 µM); MIC ([Candida] auris [13]): 2 µg/mL (≈ 6.6 µM); MIC (Candida albicans [14]): 4 µg/mL (≈ 13.2 µM); MIC (Aspergillus fumigatus): 16 µg/mL (≈ 52.8 µM); MIC (Trichophyton rubrum): 1 µg/mL (≈ 3.3 µM); MIC (Nakaseomyces glabratus [10]): 0.25 µg/mL (≈ 0.825 µM); MIC (Nakaseomyces glabratus [11]): 0.25 µg/mL (≈ 0.825 µM)
N#CCC(=O)NNC(=S)Nc1ccc(I)cc1 | 153 µM | inactive | 16 µg/mL (≈ 44.4 µM) | inactive | 2 µg/mL | 4 µg/mL | inactive | 0.25 | inactive | inactive | inactive | –
N#CCC(=O)NNC(=S)Nc1ccc(Cl)cc1 | 139 µM | inactive | 64 µg/mL (≈ 238 µM) | inactive | 2 µg/mL | 16 µg/mL | inactive | 0.53 | inactive | inactive | inactive | –
COc1ccc(NC(=S)NNC(=O)CC#N)cc1 | 348 µM | inactive | > 64 µg/mL | inactive | 2 µg/mL | 16 µg/mL | inactive | 0.53 | inactive | inactive | inactive | –
N#CCC(=O)NNC(=O)Nc1ccc(Cl)cc1 | 275 µM | inactive | 64 µg/mL (≈ 253 µM) | inactive | 4 µg/mL | 16 µg/mL | inactive | 0.56 | inactive | inactive | inactive | –
N#CCC(=O)NNC(=S)Nc1ccc(N2CCOCC2)cc1 | 622 µM | inactive | 16 µg/mL (≈ 50.1 µM) | inactive | 8 µg/mL | 0.5 µg/mL | inactive | 0.52 | inactive | inactive | inactive | –
